Results reported in patent publication US20250134994A1, “IMMUNOGENIC MRNA DELIVERY VEHICLES” (Corner Therapeutics, Inc., priority 2022, published 2025).

What was measured:
Type in all cases: cell-based
canine PBMCs = assay: IL-1β secretion by canine PBMCs (ELISA); details: two days in culture, R848 1 μg/mL, 22:0 LYSO PC 82.5 μM, concentration per mL and fold change per donor relative to R848 alone
Experimental: (§1) Isolation of PBMCs from Human and Canine Whole Blood. PBMCs were isolated from whole blood using density gradient centrifugation with Ficoll-Paque PLUS (Cytivia). Whole blood was diluted 1:1 with PBS, layered on top of Ficoll-Paque PLUS and centrifuged at 1000×g for 30 minutes at room temperature. PBMCs were collected, washed twice in PBS, and incubated with Ack lysis buffer (Lonza) to remove any remaining red blood cells.
(§2) Cell Culture and Stimulation. Immediately following isolation, PBMCs were plated in RPMI medium containing 10% FBS, 50 units/mL penicillin, […] streptomycin, 2 mM L-glutamine, 1 mM sodium pyruvate, and […] beta-mercaptoethanol (R10 media). […]
(§3) Endpoint Analyses. […] Half of the media volume in the wells was collected for cytokine quantification by Enzyme-Linked Immunosorbent Assay (ELISA) or Lumit™ Bioluminescent assay, while the remaining media and cells were used to quantify cell viability by assessing metabolic activity.
(§4) Quantification of Cytokine Secretion. IL-1β secretion from human PBMCs was assessed using one of the following kits: ELISA MAX Deluxe Set Human IL-1β kit (Biolegend), Invitrogen Human IL-1β kit, or the Lumit™ Human IL-1β Immunoassay (Promega). IFNγ secretion from human PBMCs was assessed using the ELISA MAX Deluxe Set Human IFNγ (Biolegend) and TNFα secretion from human PBMCs was assessed using the Human TNFα Uncoated ELISA kit (Invitrogen). […]

human PBMCs [1] = assay: IFNγ secretion by human PBMCs (ELISA); details: two days post-hyperactivation
Experimental: as §1, §2, §3, §4

human PBMCs [2] = assay: IL-1β secretion by human PBMCs (ELISA or Lumit); details: two days in culture, R848 1 μg/mL
Experimental: as §1, §2, §3, §4

Nc1nc2c(ncn2[C@@H]2O[C@@H]3COP(=O)(O)O[C@H]4[C@@H](O)[C@H](n5cnc6c(N)ncnc65)O[C@@H]4COP(=O)(O)O[C@@H]2[C@@H]3O)c(=O)[nH]1 [2′3′cGAMP, 2′3′ cGAMP, reference compound] was tested, and the IL-1β secretion (canine PBMCs) was “neither GM-CSF nor 2′3′cGAMP induced significant IL-1β secretion” and the “fold change per donor in IFNγ secretion relative to R848 alone” value (human PBMCs [1]) was “neither GM-CSF nor 2′3′cGAMP elicited a substantial fold change”.
“GM-CSF: human GM-CSF (Peprotech), innate agonist added at 10 ng/mL” was tested, and the IL-1β secretion (canine PBMCs) was “neither GM-CSF nor 2′3′cGAMP induced significant IL-1β secretion”, the “fold change per donor in IFNγ secretion relative to R848 alone” value (human PBMCs [1]) was “neither GM-CSF nor 2′3′cGAMP elicited a substantial fold change” and the IL-1β secretion (human PBMCs [2]) was “did not induce levels of IL-1β secretion from human PBMCs significantly above background levels”.
